Measurements as given in patent US20260167623A1 (NIKANG THERAPEUTICS, INC., priority 2022, published 2026).

What was measured:
CDK2 [1] = target: T1, CDK2 (Homo sapiens, UniProt P24941); assay: High-throughput HTRF measurement of cellular endogenous CDK2 level (degradation, DC50/Dmax) in OVCAR3 cells, 6 h; format: cell-based; settings: 6 h compound treatment, HTRF total CDK2, read-out: DC50_OVCAR3_6h
T1 construct: High-Throughput Measurement of Cellular Endogenous CDK2; endogenous in cells; host or cells: OVCAR3
Protocol: High-Throughput Measurement of Cellular Endogenous CDK2
Effects of compounds on cellular CDK2 level were monitored by a high-throughput HTRF assay.
To determine half maximal degradation concentration (DC50) and maximum degradation level (Dmax) values of compounds, cellular CDK2 level was measured in 96-well format using HTRF total CDK2 cellular kit (Cat #64CDK2TPEG) from Cisbio.
On Day 1, OVCAR3 cells were seeded into 96-well tissue-culture treated plates at 20,000 cells/well in 200 μL and incubated overnight at 37° C. in CO2 atmosphere. On Day 2 cells were treated with compounds at concentration ranging from 0.03 to 1,000 nM using HP D300 digital dispenser. 6 hours after compound treatment, cell culture media was removed by flicking the plate and tapping the plate against clean paper towel. Immediately 30 μL 1× lysis buffer was supplemented from the kit and added to each well and the plate is incubated at room temperature on shaker for 30 min. After homogenization by pipetting up and down, 8 μL cell lysate from 96-well cell culture plate was transferred to 384-well small volume white detection plate. 2 μL premixed detection solution was added and the plate is covered with sealer. To prepare the detection solution, d2 conjugated-CDK2 antibody and Eu-cryptate conjugated CDK2 antibody were diluted into detection buffer following manufacturer's instruction. Detection plates were incubated overnight at room temperature and read on ClarioStar (BMG Labtech) in TR-FRET mode (665 nM and 620 nM). The TR-FRET ratio (665 nM/620 nM) was plotted against the compound concentration and normalized to DMSO controls (0% degradation) and lysis buffer controls (100% degradation). Half maximal degradation concentration (DC 50) […] were calculated with a four-parameter logistic fit using GraphPad Prism (version 8; La Jolla, CA).
In the table below, AA indicates a DC50 of greater than or equal to 0.5 nM but less than 1 nM; A indicates a DC50 of greater than or equal to 1 nM but less than or equal to 10 nM; B indicates a DC50 of greater than 10 nM but less than or equal to 100 nM; C indicates a DC50 of greater than 100 nM but less than or equal to 1 μM; and D indicates a DC50 of greater than 1 μM […] but less than or equal to 5 μM. NT means not tested.

CDK2 [2] = target: T1, CDK2; assay: Inhibition of CDK2: phospho-Rb (S807/811) HTRF measurement in OVCAR3 cells, 24 h; format: cell-based; settings: 24 h compound treatment, read-out: pRB_OVCAR3_24h
Summary of the method: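 IC50 came from a four-parameter fit of DMSO-normalized TR-FRET ratios (665/620 nm) reporting phospho-Rb S807/811. Lysates were taken from OVCAR3 cultures treated 24 h with compound (0.3 to 10,000 nM) and incubated 4 h at room temperature with the antibody pair.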

| DC50 (CDK2 [1]) [nM] | IC50 (CDK2 [2]) [nM] | SMILES |
| --- | --- | --- |
| 1 to 10 | 100 to 500 | C=Cc1cnc(NC2CCN(S(=O)(=O)c3cccc(CN4CCC(c5ccc6c(N7CCC(=O)NC7=O)nn(C)c6c5)CC4)c3)CC2)nc1 [Example 58, 1-(1-methyl-6-(1-(3-((4-((5-vinylpyrimidin-2-yl)amino)piperidin-1-yl)sulfonyl)benzyl)-piperidin-4-yl)-1H-indazol-3-yl)dihydropyrimidine-2,4(1H,3H)-dione] |
| 10 to 100 | 100 to 500 | Cn1c(=O)n(C2CCC(=O)NC2=O)c2cccc(C3CCN(CC4CCN(c5cc(F)cc(S(=O)(=O)N6CCC(Nc7ncc(Cl)cn7)CC6)c5)CC4)CC3)c21 (centres unmarked) [Example 180, 3-(4-(1-((1-(3-((4-((5-chloropyrimidin-2-yl)amino)piperidin-1-yl)sulfonyl)-5-fluorophenyl)piperidin-4-yl)methyl)piperidin-4-yl)-3-methyl-2-oxo-2,3-dihydro-1H-benzo[d]imidazol-1-yl)piperidine-2,6-dione] |
| 1 to 10 | 1 to 100 | O=C1CCC(n2c(=O)oc3c(C4CCN(CC5CCN(c6cccc(S(=O)(=O)N7CCC(Nc8ncc(C(F)(F)F)cn8)CC7)c6)CC5)CC4)cccc32)C(=O)N1 (centres unmarked) [Example 201, 3-(2-oxo-7-(1-((1-(3-((4-((5-(trifluoromethyl)pyrimidin-2-yl)amino)piperidin-1-yl)sulfonyl)phenyl)piperidin-4-yl)methyl)piperidin-4-yl)benzo[d]oxazol-3(2H)-yl)piperidine-2,6-dione] |
| 10 to 100 | 1 to 100 | CC(Cc1cccc(S(=O)(=O)N2CCC(Nc3ncc(Cl)cn3)CC2)c1)CN1CCC(c2ccc3c(N4CCC(=O)NC4=O)nn(C)c3c2)CC1 (centres unmarked) [Example 53, 1-(6-(1-(3-(3-((4-((5-chloropyrimidin-2-yl)amino)piperidin-1-yl)sulfonyl)phenyl)-2-methylpropyl)piperidin-4-yl)-1-methyl-1H-indazol-3-yl)dihydropyrimidine-2,4(1H,3H)-dione] |
| 10 to 100 | 1 to 100 | Cn1c(=O)n(C2CCC(=O)NC2=O)c2cc(F)cc(C3CCN(CC4CCN(c5cc(S(=O)(=O)N6CCC(Nc7ncc(Cl)cn7)CC6)ccc5C#N)CC4)CC3)c21 (centres unmarked) [Example 209, 4-((4-((5-chloropyrimidin-2-yl)amino)piperidin-1-yl)sulfonyl)-2-(4-((4-(1-(2,6-dioxopiperidin-3-yl)-6-fluoro-3-methyl-2-oxo-2,3-dihydro-1H-benzo[d]imidazol-4-yl)piperidin-1-yl)methyl)piperidin-1-yl)benzonitrile] |
| 10 to 100 | 1 to 100 | Cn1nc(N2CCC(=O)NC2=O)c2ccc(C3CCN(CC4CCN(c5cc(S(=O)(=O)N6CCC(Nc7ncc(C(F)(F)F)cn7)CC6)ccc5C#N)CC4)CC3)c(F)c21 [Example 188, 2-(4-((4-(3-(2,4-dioxotetrahydropyrimidin-1(2H)-yl)-7-fluoro-1-methyl-1H-indazol-6-yl)piperidin-1-yl)methyl)piperidin-1-yl)-4-((4-((5-(trifluoromethyl)pyrimidin-2-yl)amino)piperidin-1-yl)sulfonyl)benzonitrile] |
| 10 to 100 | 100 to 500 | Cn1nc(N2CCC(=O)NC2=O)c2ccc(C3CCN(CC#Cc4cccc(S(=O)(=O)N5CCC(Nc6ncc(Cl)cn6)CC5)c4)CC3)cc21 [Example 226, 1-(6-(1-(3-(3-((4-((5-chloropyrimidin-2-yl)amino)piperidin-1-yl)sulfonyl)phenyl)prop-2-yn-1-yl)piperidin-4-yl)-1-methyl-1H-indazol-3-yl)dihydropyrimidine-2,4(1H,3H)-dione] |
| 10 to 100 | 1 to 100 | C[C@@H]1CN(CC2CCN(c3cccc(S(=O)(=O)N4CCC(Nc5ncc(Cl)cn5)CC4)c3)CC2)CCN1c1ccc2c(N3CCC(=O)NC3=O)nn(C)c2c1 [Example 116, (R)-1-(6-(4-((1-(3-((4-((5-chloropyrimidin-2-yl)amino)piperidin-1-yl)sulfonyl)phenyl)-piperidin-4-yl)methyl)-2-methylpiperazin-1-yl)-1-methyl-1H-indazol-3-yl)dihydropyrimidine-2,4(1H,3H)-dione] |
| 10 to 100 | 1 to 100 | O=C1CCC(c2csc3cc(C4CCN(CC5CCN(c6cccc(S(=O)(=O)N7CCC(Nc8ncc(C(F)(F)F)cn8)CC7)c6)CC5)CC4)ccc23)C(=O)N1 (centres unmarked) [Example 250, 3-(6-(1-((1-(3-((4-((5-(trifluoromethyl)pyrimidin-2-yl)amino)piperidin-1-yl)sulfonyl)phenyl)piperidin-4-yl)methyl)piperidin-4-yl)benzo[b]thiophen-3-yl)piperidine-2,6-dione] |
| 1 to 10 | 1 to 100 | Cn1nc(N2CCC(=O)NC2=O)c2ccc(C3CCN(CC4CCN(c5cc(F)cc(S(=O)(=O)N6CCC(Nc7ncc(C(F)(F)F)cn7)CC6)c5)CC4)CC3)cc21 [Example 149, 1-(6-(1-((1-(3-fluoro-5-((4-((5-(trifluoromethyl)pyrimidin-2-yl)amino)piperidin-1-yl)sulfonyl)phenyl)piperidin-4-yl)methyl)piperidin-4-yl)-1-methyl-1H-indazol-3-yl)dihydropyrimidine-2,4(1H,3H)-dione] |
| 10 to 100 | 1 to 100 | Cn1nc(N2CCC(=O)NC2=O)c2ccc(C3CCN(CC4CN(c5cccc(S(=O)(=O)N6CCC(Nc7ncc(C(F)(F)F)cn7)CC6)c5)C4)CC3)cc21 [Example 108, 1-(1-methyl-6-(1-((1-(3-((4-((5-(trifluoromethyl)pyrimidin-2-yl)amino)-piperidin-1-yl)sulfonyl)phenyl)azetidin-3-yl)methyl)piperidin-4-yl)-1H-indazol-3-yl)dihydropyrimidine-2,4(1H,3H)-dione] |
| 10 to 100 | 1 to 100 | Cn1nc(N2CCC(=O)NC2=O)c2ccc(C3CCN(CC4CCN(c5cccc(S(=O)(=O)N6CCC(Nc7ncc(OC(F)(F)F)cn7)CC6)c5)CC4)CC3)cc21 [Example 115, 1-(1-methyl-6-(1-((1-(3-((4-((5-(trifluoro-methoxy)pyrimidin-2-yl)amino)piperidin-1-yl)sulfonyl)phenyl)piperidin-4-yl)methyl)piperidin-4-yl)-1H-indazol-3-yl)dihydropyrimidine-2,4(1H,3H)-dione] |
| 1 to 10 | 1 to 100 | Cn1nc(N2CCC(=O)NC2=O)c2ccc(C3CCN(CC4CCN(c5cccc(S(=O)(=O)N6CCC(Nc7ncc(Cl)cn7)CC6)c5)C(=O)C4)CC3)cc21 (centres unmarked) [Example 234, 1-(6-(1-((1-(3-((4-((5-chloropyrimidin-2-yl)amino)piperidin-1-yl)sulfonyl)phenyl)-2-oxopiperidin-4-yl)methyl)piperidin-4-yl)-1-methyl-1H-indazol-3-yl)dihydropyrimidine-2,4(1H,3H)-dione] |
| 1 to 10 | 100 to 500 | Cc1ncsc1-c1ccc([C@H](C)NC(=O)[C@@H]2C[C@@H](O)CN2C(=O)[C@@H](NC(=O)C2(F)CC2)C(C)(C)SCC2CCN(Cc3cccc(S(=O)(=O)N4CCC(Nc5ncc(C(F)(F)F)cn5)CC4)c3)CC2)cc1 [Example 8, (2S,4R)-1-((R)-2-(1-fluorocyclopropane-1-carboxamido)-3-methyl-3-(((1-(3-((4-((5-(trifluoromethyl)pyrimidin-2-yl)amino)-piperidin-1-yl)sulfonyl)benzyl)piperidin-4-yl)methyl)thio)butanoyl)-4-hydroxy-N-((S)-1-(4-(4-methylthiazol-5-yl)phenyl)-ethyl)pyrrolidine-2-carboxamide] |
| 10 to 100 | 1 to 100 | Cn1c(=O)n(C2CCC(=O)NC2=O)c2c(F)ccc(C3CCN(CC4CCN(c5cc(S(=O)(=O)N6CCC(Nc7ncc(Cl)cn7)CC6)ccc5C#N)CC4)CC3)c21 (centres unmarked) [Example 220, 4-((4-((5-chloropyrimidin-2-yl)amino)piperidin-1-yl)sulfonyl)-2-(4-((4-(1-(2,6-dioxopiperidin-3-yl)-7-fluoro-3-methyl-2-oxo-2,3-dihydro-1H-benzo[d]imidazol-4-yl)piperidin-1-yl)methyl)piperidin-1-yl)benzonitrile] |
| 1000 to 5000 | 1 to 100 | O=C1CCC(N2Cc3cc(N4CCC(CN5CCN(c6cccc(S(=O)(=O)N7CCC(Nc8ncc(C(F)(F)F)cn8)CC7)c6)CC5)CC4)ccc3C2=O)C(=O)N1 (centres unmarked) [Example 248, 3-(1-oxo-5-(4-((4-(3-((4-((5-(trifluoromethyl)pyrimidin-2-yl)amino)piperidin-1-yl)sulfonyl)phenyl)piperazin-1-yl)methyl)piperidin-1-yl)isoindolin-2-yl)piperidine-2,6-dione] |
